These are literature values, as cited in patent US10413588B2, “Probiotic function of human intelectin” (Wisconsin Alumni Research Foundation, priority 2015, dated 2019).

This series has as its target hIntL-1 (Homo sapiens, UniProt Q8WWA0). Particulars: reported by Tsuji et al., 2001; read-out: apparent KD / apparent affinity for hIntL-1.

Chain of hIntL-1 (Q8WWA0 19-298): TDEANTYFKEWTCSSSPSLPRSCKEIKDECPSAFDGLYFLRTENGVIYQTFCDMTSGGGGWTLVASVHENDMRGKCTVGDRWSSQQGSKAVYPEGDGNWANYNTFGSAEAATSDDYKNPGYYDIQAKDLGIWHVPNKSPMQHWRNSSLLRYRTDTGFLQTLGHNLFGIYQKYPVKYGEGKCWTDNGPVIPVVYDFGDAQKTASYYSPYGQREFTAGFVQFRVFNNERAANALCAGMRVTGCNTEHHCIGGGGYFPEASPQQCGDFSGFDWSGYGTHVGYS

Turning to `O=C[C@H](O)[C@H](O)[C@H](O)CO` [D-ribose], the Kd is 5 mM.
